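Five concentrations, 48 hours, 96-well plates. TGI is the concentration that stops growth completely.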
How the values were obtained:
Assay in all cases: NCI anticancer screen, dose series, 48 h
[1] = tested on: HCT-15 colon
[2] = tested on: HOP-92 NSCLC
[3] = tested on: M19-MEL melanoma
[4] = tested on: SNB-78 CNS
[5] = tested on: HT29 colon
[6] = tested on: 786-0 renal
[7] = tested on: HL-60(TB) leukemia
[8] = tested on: SF-268 CNS
[9] = tested on: SF-295 CNS
[10] = tested on: K-562 leukemia
[11] = tested on: SK-MEL-28 melanoma
[12] = tested on: OVCAR-8 ovarian
[13] = tested on: OVCAR-4 ovarian
[14] = tested on: RPMI-8226 leukemia
[15] = tested on: SNB-19 CNS
[16] = tested on: DLD-1 colon
[17] = tested on: NCI-H522 lung
[18] = tested on: A549 NSCLC
[19] = tested on: IGROV1 ovarian
[20] = tested on: HOP-62 NSCLC
[21] = tested on: SNB-75 CNS
[22] = tested on: ACHN renal
[23] = tested on: SN12C renal
[24] = tested on: SF-539 CNS
[25] = tested on: CCRF-CEM leukemia
[26] = tested on: LOX IMVI melanoma
[27] = tested on: SK-OV-3 ovarian
[28] = tested on: SK-MEL-2 melanoma
[29] = tested on: UO-31 renal
[30] = tested on: HCT-116 colon
[31] = tested on: DMS 273 small cell lung
[32] = tested on: UACC-62 melanoma
[33] = tested on: KM12 colon
[34] = tested on: TK-10 renal
[35] = tested on: NCI-H226 lung
[36] = tested on: SR leukemia
[37] = tested on: OVCAR-3 ovarian
[38] = tested on: NCI-H23 lung
[39] = tested on: EKVX NSCLC
[40] = tested on: OVCAR-5 ovarian
[41] = tested on: CAKI-1 renal
[42] = tested on: A498 renal
[43] = tested on: MOLT-4 leukemia
[44] = tested on: SW-620 colon
[45] = tested on: M14 melanoma
[46] = tested on: DMS 114 small cell lung
[47] = tested on: XF 498 CNS
[48] = tested on: MALME-3M melanoma
[49] = tested on: RXF 393 renal
[50] = tested on: KM20L2 colon
[51] = tested on: UACC-257 melanoma
[52] = tested on: HOP-18 NSCLC
[53] = tested on: HCC-2998 colon
[54] = tested on: U251 CNS
[55] = tested on: LXFL 529 NSCLC
[56] = tested on: SK-MEL-5 melanoma
[57] = tested on: RXF-631 renal
[58] = tested on: COLO 205 colon
[59] = tested on: NCI-H460 lung

N/C(=N/N=C/c1cccc(F)c1)NO
TGI [1]: > 100 µM
TGI [2]: > 100 µM
TGI [3]: > 100 µM
TGI [4]: > 100 µM
TGI [5]: > 100 µM
TGI [6]: > 100 µM
TGI [7]: 93.5 µM
TGI [8]: 68.7 µM
TGI [9]: > 100 µM
TGI [10]: > 100 µM
TGI [11]: > 100 µM
TGI [12]: > 100 µM
TGI [13]: > 100 µM
TGI [14]: > 100 µM
TGI [15]: > 100 µM
TGI [16]: > 100 µM
TGI [17]: 96.1 µM
TGI [18]: 98.7 µM
TGI [19]: > 100 µM
TGI [20]: 82.1 µM
TGI [21]: > 100 µM
TGI [22]: > 100 µM
TGI [23]: > 100 µM
TGI [24]: 70 µM
TGI [25]: > 100 µM
TGI [26]: 97.7 µM
TGI [27]: > 100 µM
TGI [28]: > 100 µM
TGI [29]: > 100 µM
TGI [30]: > 100 µM
TGI [31]: > 100 µM
TGI [32]: 41 µM
TGI [33]: > 100 µM
TGI [34]: > 100 µM
TGI [35]: > 100 µM
TGI [36]: > 100 µM
TGI [37]: > 100 µM
TGI [38]: > 100 µM
TGI [39]: > 100 µM
TGI [40]: > 100 µM
TGI [41]: 91.7 µM
TGI [42]: > 100 µM
TGI [43]: > 100 µM
TGI [44]: > 100 µM
TGI [45]: 56 µM
TGI [46]: 84.7 µM
TGI [47]: > 100 µM
TGI [48]: > 100 µM
TGI [49]: 78.4 µM
TGI [50]: > 100 µM
TGI [51]: > 100 µM
TGI [52]: > 100 µM
TGI [53]: > 100 µM
TGI [54]: > 100 µM
TGI [55]: > 100 µM
TGI [56]: 32.4 µM
TGI [57]: > 100 µM
TGI [58]: > 100 µM
TGI [59]: > 100 µM

COC(=O)c1cc2c(nc1C)-c1ccccc1OS2(=O)=O
TGI [1]: > 100 µM
TGI [2]: 83.2 µM
TGI [3]: > 100 µM
TGI [4]: > 100 µM
TGI [5]: > 100 µM
TGI [6]: > 100 µM
TGI [7]: > 100 µM
TGI [8]: > 100 µM
TGI [9]: > 100 µM
TGI [10]: > 100 µM
TGI [12]: > 100 µM
TGI [13]: > 100 µM
TGI [14]: > 100 µM
TGI [15]: > 100 µM
TGI [16]: > 100 µM
TGI [17]: > 100 µM
TGI [18]: > 100 µM
TGI [19]: > 100 µM
TGI [20]: 67.8 µM
TGI [21]: 35.3 µM
TGI [22]: > 100 µM
TGI [23]: > 100 µM
TGI [24]: > 100 µM
TGI [25]: > 100 µM
TGI [26]: > 100 µM
TGI [27]: > 100 µM
TGI [29]: > 100 µM
TGI [30]: > 100 µM
TGI [31]: > 100 µM
TGI [32]: > 100 µM
TGI [33]: > 100 µM
TGI [34]: > 100 µM
TGI [35]: > 100 µM
TGI [36]: > 100 µM
TGI [37]: > 100 µM
TGI [38]: > 100 µM
TGI [39]: > 100 µM
TGI [40]: > 100 µM
TGI [41]: > 100 µM
TGI [42]: > 100 µM
TGI [43]: > 100 µM
TGI [44]: > 100 µM
TGI [45]: > 100 µM
TGI [46]: > 100 µM
TGI [47]: > 100 µM
TGI [48]: > 100 µM
TGI [49]: > 100 µM
TGI [50]: > 100 µM
TGI [51]: > 100 µM
TGI [53]: > 100 µM
TGI [54]: > 100 µM
TGI [55]: > 100 µM
TGI [56]: > 100 µM
TGI [57]: > 100 µM
TGI [58]: > 100 µM
TGI [59]: > 100 µM
